Legend:
BRD4-BD1 (44-164) = target: T1, BRD4-BD1 (44-164) (Homo sapiens, UniProt O60885); assay: Alphascreen binding assay BRD4-BD1 (BRD4 biochemical inhibitory activity); conditions: read-out: Biochemical activity (IC50 μM) BRD4(1) H4
T1 construct: BRD4-BD1 (44-164); made in house; host or cells: E. coli BL21-CodonPlus (DE3)
Description: Binding of compounds of formula (I) with bromodomain 2, 3 4 was assessed using Alphascreen binding assay. The inhibition of the interaction between bromodomain and its acetylated target protein (Filippakopoulos P et al. 2012) was measured quantitatively using recombinant BRD proteins, an acetylated Histone 4 peptide and AlphaScreen™ technology. In absence of inhibition the BRD protein bound to AlphaScreen™ nickel chelate acceptor beads can interact with the acetylated Histone 4 peptide which is immobilized by the AlphaScreen™ Streptavidin coated beads. This interaction brings donor and acceptor beads in proximity. The close proximity allows the singlet oxygen produced by laser excitation of the donor beads to reach the acceptor beads and generate a luminescence signal. BRD inhibitors result in a decrease in the proximity signal through an inhibition of the BRD—acetylated peptide interaction.
Recombinant human bromodomains containing the N-terminal bromodomain (BRD2-BD1 (71-194), BRD3-BD1 (24-144) and BRD4-BD1 (44-164)) or dual bromodomains (BRD4-BD12 (1-477), BRD4-BD12 (1-472)) were prepared and purified as described in protein expression and purification session. The peptide is human Histone H41-21K5AcK8AcK12AcK16Ac-Biotin (Anaspec Calif., USA).
Protocol for BRD2, BRD3 and BRD4 assay: All components are prepared in buffer composed of 50 mM HEPES pH 7.5, 100 mM NaCl, 0.01% bovine serum albumin (“BSA”), 0.01% Triton X-100, 2 mM dithiothreitol (“DTT”). 7 μL of Bromodomain protein and 7 μL of peptide are added to wells containing 1 μL of various concentrations of test compounds of formula (I) or DMSO vehicle in an Alphaplate (PerkinElmer Ga., USA) and incubated for 1 hour at room temperature. 4 μL donor and acceptor bead mixture is then added with final concentrations of 7.5 μg/ml. 30 minutes after bead addition, Alpha signal is read on the Envision spectrometer ([…]Ex 680 nm, […]Em 520-620 nm). Final concentrations of bromodomain proteins and peptide are as shown below.
All data was normalized to the mean of 16 high and 16 low control wells on each plate. A four parameter curve fit of the following formula was then applied: Y=a+(b−a)/(1+(x/c)^d) Where ‘a’ is the minimum, ‘b’ is the maximum, ‘c’ is the pIC50 and ‘d’ is the Hill slope. Protein Expression and Purification
Recombinant human bromodomains containing the N-terminal bromodomain (BRD2-BD1 (71-194), BRD3-BD1 (24-144) and BRD4-BD1 (44-164)) or dual bromodomains (BRD4-BD12 (1-477), BRD4-BD12 (1-472)) were expressed in E. coli cells (in a modified pET vector) with an N-terminal six-His tag and purified using a combination of both IMAC (Ni-affinity) and size exclusion chromatography steps.
Recombinant BRD proteins were expressed using the E. coli strain BL21-CodonPlus (DE3) (Agilent Technologies Calif., USA). Cells were grown in Terrific Broth (TB) media to an OD600 of 1.2 at 37° C. at which temperature was reduced to 25° C., protein was induced with 1.0 mM ispropyl-β-D-thiogalactopyranoside (“IPTG”) for 12-18 hours and harvested by centrifugation at 8000×g for 20 minutes. Cells were re-suspended in 0.1M K2PO4 pH 8.0, 250 mM NaCl, 10% Glycerol, 0.75% NP-40, 25 mM Imidazole, 5 mM beta-mercaptoethanol (“BME”) with 0.2 mg/ml Lysosyme, 2.0 mM phenylmethanesulfonyl fluoride (“PMSF”), 25 μg/ml DNAse I, incubated on ice for 30 minutes and lyzed with a cell disruptor (MicroFluidics Mass., USA). The lysate was clarified by centrifugation at 20,000×g for 2 hours. The protein was captured with Ni-NTA resin (Life Technologies, USA). Contaminating proteins were washed off with 25 mM Tris-HCl pH 8.3, 250 mM NaCl, 12% Glycerol and 50 mM Imidazole. Following 3× wash steps, protein was eluted step wise using a 50 mM HEPES pH 7.5, 500 mM NaCl and 400 mM Imidazole. The protein was further purified using Gel Filtration column 26/600 Superdex 200 (GE Biosciences NJ, USA) in 50 mM HEPES pH 7.5, 250 mM NaCl. The protein was aliquoted and flash-frozen in liquid Nitrogen. […]

MV-4-11 = assay: Oncology cell growth assay MV-4-11 (CellTiter Glo, 72 hours); format: cell-based; conditions: Homo sapiens, MV4-11, 72 h; MV-4-11 cell growth inhibitory activity, 3d
Summary of the method: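 MV-4-11 cells (MLL-AF4 AML) exposed 72 h to 8-point 1:3 titration, top final 10 μM, 0.2% DMSO. CellTiter Glo luminescence as cell-number readout, normalized to DMSO controls; pIC50 from four-parameter fit.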

bromodomain = assay: Bromodomain cell assays of Example 40 (at least one of them); format: cell-based; conditions: in at least one of the bromodomain cell assays described in Example 40
Summary of the method: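 Growth inhibition: 3000 MV-4-11, MOLM-13, MM.1S or neuroblastoma cells/well got an 8-point 1:3 series from 10 μM top (0.2% DMSO) for 72 h, then CellTiter-Glo luminescence. Myc reporter: MV-4-11 with E-box firefly luciferase, 24 h exposure, One-Glo luminescence plus CellTiter-Fluo cell count. pIC50 from four-parameter fit.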

Compound | IC50 (BRD4-BD1 (44-164)) [µM] | IC50 (MV-4-11) [µM] | IC50 (bromodomain) [µM]
Cc1cc2cc(-c3c(C)noc3C)cnc2[nH]1 [P-0017, 3,5-dimethyl-4-(2-methyl-1H-pyrrolo[2,3-b]pyridin-5-yl)isoxazole] | 1 to 10 | 1 to 10 | < 10
Cc1noc(C)c1-c1cnc2[nH]cc(C(O)c3ccc(C(F)(F)F)nc3)c2c1 (stereo not drawn) [P-0023, [5-(3,5-dimethylisoxazol-4-yl)-1H-pyrrolo[2,3-b]pyridin-3-yl]-[6-(trifluoromethyl)-3-pyridyl]methanol] | 1 to 10 | 1 to 10 | < 10
COc1ccc(S(=O)(=O)n2ccc3ncc(-c4c(C)noc4C)cc32)cc1 [P-0032, 4-[1-(4-methoxyphenyl)sulfonylpyrrolo[3,2-b]pyridin-6-yl]-3,5-dimethyl-isoxazole] | 1 to 10 | 1 to 10 | < 10
Cc1noc(C)c1-c1cnc2ccn(S(=O)(=O)c3ccc(OC(C)C)cc3)c2c1 [P-0033, 4-[1-(4-isopropoxyphenyl)sulfonylpyrrolo[3,2-b]pyridin-6-yl]-3,5-dimethyl-isoxazole] | 1 to 10 | 1 to 10 | < 10
CCc1cc2cc(-c3c(C)noc3C)cnc2[nH]1 [P-0035, 4-(2-ethyl-1H-pyrrolo[2,3-b]pyridin-5-yl)-3,5-dimethyl-isoxazole] | 1 to 10 | 1 to 10 | < 10
Cc1noc(C)c1-c1cnc2[nH]cc(Cc3cccc(OC(F)(F)F)c3)c2c1 [P-0046, 3,5-dimethyl-4-[3-[[3-(trifluoromethoxy)phenyl]methyl]-1H-pyrrolo[2,3-b]pyridin-5-yl]isoxazole] | 1 to 10 | 1 to 10 | < 10
Cc1noc(C)c1-c1cnc2ccn(S(=O)(=O)c3ccc(F)cc3)c2c1 [P-0052, 4-[1-(4-fluorophenyl)sulfonylpyrrolo[3,2-b]pyridin-6-yl]-3,5-dimethyl-isoxazole] | 1 to 10 | 1 to 10 | < 10
Cc1noc(C)c1-c1cnc2ccn(S(=O)(=O)c3ccc(Cl)cc3)c2c1 [P-0053, 4-[1-(4-chlorophenyl)sulfonylpyrrolo[3,2-b]pyridin-6-yl]-3,5-dimethyl-isoxazole] | 1 to 10 | 1 to 10 | < 10
Cc1noc(C)c1-c1cnc2ccn(S(=O)(=O)c3cnn(C(F)F)c3)c2c1 [P-0054, 4-[1-[1-(difluoromethyl)pyrazol-4-yl]sulfonylpyrrolo[3,2-b]pyridin-6-yl]-3,5-dimethyl-isoxazole] | 1 to 10 | 1 to 10 | < 10
Cc1noc(C)c1-c1cnc2ccn(S(=O)(=O)c3cccs3)c2c1 [P-0055, 3,5-dimethyl-4-[1-(2-thienylsulfonyl)pyrrolo [3,2-b]pyridin-6-yl]isoxazole] | 1 to 10 | 1 to 10 | < 10
Cc1noc(C)c1-c1cnc2ccn(S(=O)(=O)c3cccc(F)c3)c2c1 [P-0056, 4-[1-(3-fluorophenyl)sulfonylpyrrolo[3,2-b]pyridin-6-yl]-3,5-dimethyl-isoxazole] | 1 to 10 | 1 to 10 | < 10
Cc1noc(C)c1-c1cnc2c(c1)N(S(=O)(=O)c1ccccc1)CC2CCC(=O)O (stereo not drawn) [P-0175, 3-[1-(benzenesulfonyl)-6-(3,5-dimethylisoxazol-4-yl)-2,3-dihydropyrrolo[3,2-b]pyridin-3-yl]propanoic acid] | 1 to 10 | – | < 10
Cc1noc(C)c1-c1cnc2c(c1)c(Sc1ccccc1)cn2C1COC1 [P-0178, 3,5-dimethyl-4-[1-(oxetan-3-yl)-3-phenylsulfanyl-pyrrolo[2,3-b]pyridin-5-yl]isoxazole] | 1 to 10 | 1 to 10 | –
Cc1noc(C)c1-c1cnc2c(-c3cnn(C)c3)cn(C(=O)C3CCC(F)(F)CC3)c2c1 [P-0208, (4,4-difluorocyclohexyl)-[6-(3,5-dimethylisoxazol-4-yl)-3-(1-methylpyrazol-4-yl)pyrrolo[3,2-b]pyridin-1-yl]methanone] | ≤ 1 | 1 to 10 | –

— patent publication US10501460B2, “Heterocyclic compounds and uses thereof” (Plexxikon Inc., priority 2013, dated 2019)
